According to US11267825B2 (AICURIS GMBH & CO. KG, priority 2017, dated 2022):

Assays:
HBV core protein = HBV core protein (UniProt P03146); format: biochemical; settings: read-out: Assembly Activity (IC50); BODIPY-FL labelled core protein, assembly started with NaCl, read after 6 min
Procedure, shortened: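 Fluorescence-quenching assembly assay using E. coli-expressed core protein 1–149 plus Cys150, labelled with BODIPY-FL maleimide, at 1.0–2.0 μM in 50 mM HEPES pH 7.5, 0.5% DMSO. Assembly started with NaCl to […]; fluorescence (ex 477/em 525 nm) read after 6 min. EC50 by non-linear regression, 8-point 0.5-log dilutions.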

HBV = assay: Determination of HBV DNA from the supernatants of HepAD38 cells (anti-HBV activity); format: cell-based, hepatitis B virus; settings: Hepatitis B virus, 144 h; HBV DNA in HepAD38 supernatant at day 6; read-out: Cell Activity (EC50)
Procedure, shortened: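 HepAD38 cells (60,000/well) were treated with half-log compound dilutions in tetracycline-free medium to induce HBV production. On day 6, HBV DNA was purified from filtered supernatant and quantified by real-time PCR against plasmid standards. EC50 values came from non-linear regression of relative copy numbers, typically from three experiments in triplicate.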

Chain of HBV core protein (P03146 whole entry, looked up): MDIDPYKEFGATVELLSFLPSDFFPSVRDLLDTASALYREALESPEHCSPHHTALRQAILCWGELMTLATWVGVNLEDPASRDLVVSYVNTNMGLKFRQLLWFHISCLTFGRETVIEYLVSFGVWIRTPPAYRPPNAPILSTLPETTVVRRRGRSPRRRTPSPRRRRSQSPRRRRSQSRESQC

With `O=C(c1cc2c(C(F)(F)F)cccc2[nH]1)N1CCc2nc(NCC3CCOC3)sc2C1` (stereo not shown) [Example 123, 5-(4-(trifluoromethyl)-1H-indole-2-carbonyl)-N-[(oxolan-3-yl)methyl]-4H,5H,6H,7H-[1,3]thiazolo[5,4-c]pyridin-2-amine] the IC50 (HBV core protein) was 5 to 10 µM and the EC50 (HBV) was < 1000 nM.
With `CCNC(=O)C1(CNc2nc3c(s2)CN(C(=O)c2cc4ccccc4[nH]2)CC3)CCC1` [Example 417, N-ethyl-1-({[5-(1H-indole-2-carbonyl)-4H,5H,6H,7H-[1,3]thiazolo[5,4-c]pyridin-2-yl]amino}methyl)cyclobutane-1-carboxamide] the IC50 (HBV core protein) was < 5 µM and the EC50 (HBV) was < 1000 nM.
`Nc1nc2c(s1)CN(C(=O)c1cc3c(F)c(F)c(F)cc3[nH]1)CC2` [Example 78, 5-(4,5,6-trifluoro-1H-indole-2-carbonyl)-4H,5H,6H,7H-[1,3]thiazolo[5,4-c]pyridin-2-amine] was tested, and the IC50 (HBV core protein) was < 5 µM and the EC50 (HBV) was < 1000 nM.
For `O=C(c1cc2c(C(F)F)cccc2[nH]1)N1CCc2nc(NCC3CCOC3)sc2C1` (stereo not shown) [Example 325, 5-[4-(difluoromethyl)-1H-indole-2-carbonyl]-N-[(oxolan-3-yl)methyl]-4H,5H,6H,7H-[1,3]thiazolo[5,4-c]pyridin-2-amine], the IC50 (HBV core protein) was < 5 µM and the EC50 (HBV) was < 1000 nM.
`O=C(c1cc2ccccc2[nH]1)N1CCc2nc(CNC3CCOC3)sc2C1` (stereo not shown) [Example 40, N-{[5-(1H-indole-2-carbonyl)-4H,5H,6H,7H-[1,3]thiazolo[5,4-c]pyridin-2-yl]methyl}oxolan-3-amine] gave an IC50 (HBV core protein) of 5 to 10 µM and an EC50 (HBV) of 1000 to 10000 nM.
Compound `O=C(c1cc2ccccc2[nH]1)N1CCc2nc(-c3ncccn3)sc2C1` [Example 202, 2-[2-(pyrimidin-2-yl)-4H,5H,6H,7H-[1,3]thiazolo[5,4-c]pyridine-5-carbonyl]-1H-indole] has an IC50 (HBV core protein) of 5 to 10 µM and an EC50 (HBV) of 1000 to 10000 nM.
In the case of `CC(=O)N1CCOC(CNc2nc3c(s2)CN(C(=O)c2cc4ccccc4[nH]2)CC3)C1` (stereo not shown) [Example 242, 1-[2-({[5-(1H-indole-2-carbonyl)-4H,5H,6H,7H-[1,3]thiazolo[5,4-c]pyridin-2-yl]amino}methyl)morpholin-4-yl]ethan-1-one], the IC50 (HBV core protein) is reported as 5 to 10 µM and the EC50 (HBV) is reported as < 1000 nM.
With `Cc1nc2c(s1)CN(C(=O)c1cc3c(F)cc(Cl)cc3[nH]1)CC2` [Example 165] the IC50 (HBV core protein) was < 5 µM and the EC50 (HBV) was 1000 to 10000 nM.
`CCc1cccc2[nH]c(C(=O)N3CCc4nc(NCC5(O)CCC5)sc4C3)cc12` [Example 338, 1-({[5-(4-ethyl-1H-indole-2-carbonyl)-4H,5H,6H,7H-[1,3]thiazolo[5,4-c]pyridin-2-yl]amino}methyl)cyclobutan-1-ol] was tested, and the IC50 (HBV core protein) was < 5 µM and the EC50 (HBV) was < 1000 nM.
In the case of `CS(=O)(=O)NC(=O)Nc1nc2c(s1)CN(C(=O)c1cc3ccccc3[nH]1)CC2` [Example 393, 1-[5-(1H-indole-2-carbonyl)-4H,5H,6H,7H-[1,3]thiazolo[5,4-c]pyridin-2-yl]-3-methanesulfonylurea], the IC50 (HBV core protein) is reported as 5 to 10 µM and the EC50 (HBV) is reported as 1000 to 10000 nM.
`CC1(Nc2nc3c(s2)CN(C(=O)c2cc4ccccc4[nH]2)CC3)CCOCC1` [Example 69, 5-(1H-indole-2-carbonyl)-N-(4-methyloxan-4-yl)-4H,5H,6H,7H-[1,3]thiazolo[5,4-c]pyridin-2-amine] was tested, and the IC50 (HBV core protein) was < 5 µM and the EC50 (HBV) was < 1000 nM.
For `O=C(c1cc2cc(F)c(Cl)cc2[nH]1)N1CCc2nc(NCC3(CO)CC3)sc2C1` [Example 234, [1-({[5-(6-chloro-5-fluoro-1H-indole-2-carbonyl)-4H,5H,6H,7H-[1,3]thiazolo[5,4-c]pyridin-2-yl]amino}methyl)cyclopropyl]methanol], the IC50 (HBV core protein) was < 5 µM and the EC50 (HBV) was < 1000 nM.
In the case of `O=C(c1cc2c(Cl)cc(F)cc2[nH]1)N1CCc2nc(NCC3CCOC3)sc2C1` (stereo not shown) [Example 101, 5-(4-chloro-6-fluoro-1H-indole-2-carbonyl)-N-[(oxolan-3-yl)methyl]-4H,5H,6H,7H-[1,3]thiazolo[5,4-c]pyridin-2-amine], the IC50 (HBV core protein) is reported as < 5 µM and the EC50 (HBV) is reported as < 1000 nM.
For `CCc1cccc2[nH]c(C(=O)N3CCc4nc(NCC5(CO)CC5)sc4C3)cc12` [Example 272, [1-({[5-(4-ethyl-1H-indole-2-carbonyl)-4H,5H,6H,7H-[1,3]thiazolo[5,4-c]pyridin-2-yl]amino}methyl)cyclopropyl]methanol], the IC50 (HBV core protein) was < 5 µM and the EC50 (HBV) was < 1000 nM.
In the case of `O=C(c1cc2ccccc2[nH]1)N1CCc2nc(NS(=O)(=O)C3CC3)sc2C1` [Example 6, N-[5-(1H-indole-2-carbonyl)-4H,5H,6H,7H-[1,3]thiazolo[5,4-c]pyridin-2-yl]cyclopropanesulfonamide], the IC50 (HBV core protein) is reported as < 100 µM and the EC50 (HBV) is reported as < 1000 nM.
In the case of `O=C(c1cc2ccccc2[nH]1)N1CCc2nc(CN3CCOCC3)sc2C1` [Example 39, 2-{2-[(morpholin-4-yl)methyl]-4H,5H,6H,7H-[1,3]thiazolo[5,4-c]pyridine-5-carbonyl}-1H-indole], the IC50 (HBV core protein) is reported as < 5 µM and the EC50 (HBV) is reported as < 1000 nM.
With `CCNCc1nc2c(s1)CN(C(=O)c1cc3ccccc3[nH]1)CC2` [Example 32, Ethyl({[5-(1H-indole-2-carbonyl)-4H,5H,6H,7H-[1,3]thiazolo[5,4-c]pyridin-2-yl]methyl})amine] the IC50 (HBV core protein) was < 100 µM and the EC50 (HBV) was < 100000 nM.
`Cc1nc2c(s1)CN(C(=O)c1cc3cc(Cl)ccc3[nH]1)CC2` [Example 161, 5-chloro-2-{2-methyl-4H,5H,6H,7H-[1,3]thiazolo[5,4-c]pyridine-5-carbonyl}-1H-indole] gave an IC50 (HBV core protein) of 5 to 10 µM and an EC50 (HBV) of 1000 to 10000 nM.
`O=C(c1cc2ccccc2[nH]1)N1CCc2nc(NCC3COCCO3)sc2C1` (stereo not shown) [Example 66, N-[(1,4-dioxan-2-yl)methyl]-5-(1H-indole-2-carbonyl)-4H,5H,6H,7H-[1,3]thiazolo[5,4-c]pyridin-2-amine] was tested, and the IC50 (HBV core protein) was < 5 µM and the EC50 (HBV) was < 1000 nM.
For `Cc1cc(F)cc2[nH]c(C(=O)N3CCc4nc(N[C@H]5CC[C@@H](O)CC5)sc4C3)cc12` [Example 303, (1s,4s)-4-{[5-(6-fluoro-4-methyl-1H-indole-2-carbonyl)-4H,5H,6H,7H-[1,3]thiazolo[5,4-c]pyridin-2-yl]amino}cyclohexan-1-ol], the IC50 (HBV core protein) was < 5 µM and the EC50 (HBV) was < 1000 nM.
In the case of `N#Cc1ccc2cc(C(=O)N3CCc4nc(N)sc4C3)[nH]c2c1` [Example 17, 2-{2-amino-4H,5H,6H,7H-[1,3]thiazolo[5,4-c]pyridine-5-carbonyl}-1H-indole-6-carbonitrile], the IC50 (HBV core protein) is reported as < 100 µM and the EC50 (HBV) is reported as 1000 to 10000 nM.
For `O=C(c1cc2c(Cl)cccc2[nH]1)N1CCc2nc(NCC3(O)CCC3)sc2C1` [Example 311, 1-({[5-(4-chloro-1H-indole-2-carbonyl)-4H,5H,6H,7H-[1,3]thiazolo[5,4-c]pyridin-2-yl]amino}methyl)cyclobutan-1-ol], the IC50 (HBV core protein) was < 5 µM and the EC50 (HBV) was < 1000 nM.
With `CC1CC1C(=O)Nc1nc2c(s1)CN(C(=O)c1cc3ccccc3[nH]1)CC2` (stereo not shown) [Example 268, N-[5-(1H-indole-2-carbonyl)-4H,5H,6H,7H-[1,3]thiazolo[5,4-c]pyridin-2-yl]-2-methylcyclopropane-1-carboxamide] the IC50 (HBV core protein) was 5 to 10 µM and the EC50 (HBV) was < 1000 nM.
In the case of `O=C(c1cc2ccccc2[nH]1)N1CCc2nc(NC3CCC3)sc2C1` [Example 429, N-cyclobutyl-5-(1H-indole-2-carbonyl)-4H,5H,6H,7H-[1,3]thiazolo[5,4-c]pyridin-2-amine], the IC50 (HBV core protein) is reported as < 5 µM and the EC50 (HBV) is reported as < 1000 nM.
`CC(C)(CO)Nc1nc2c(s1)CN(C(=O)c1cc3ccccc3[nH]1)CC2` [Example 68, 2-{[5-(1H-indole-2-carbonyl)-4H,5H,6H,7H-[1,3]thiazolo[5,4-c]pyridin-2-yl]amino}-2-methylpropan-1-ol] was tested, and the IC50 (HBV core protein) was < 5 µM and the EC50 (HBV) was < 1000 nM.
With `CC(O)CNc1nc2c(s1)CN(C(=O)c1cc3c(Cl)cc(F)cc3[nH]1)CC2` (stereo not shown) [Example 142, 1-{[5-(4-chloro-6-fluoro-1H-indole-2-carbonyl)-4H,5H,6H,7H-[1,3]thiazolo[5,4-c]pyridin-2-yl]amino}propan-2-ol] the IC50 (HBV core protein) was < 5 µM and the EC50 (HBV) was < 1000 nM.
In the case of `O=C(c1cc2ccc(Br)cc2[nH]1)N1CCc2nc(NCC3(O)CCC3)sc2C1` [Example 365, 1-({[5-(6-bromo-1H-indole-2-carbonyl)-4H,5H,6H,7H-[1,3]thiazolo[5,4-c]pyridin-2-yl]amino}methyl)cyclobutan-1-ol], the IC50 (HBV core protein) is reported as < 5 µM and the EC50 (HBV) is reported as < 1000 nM.
`CC(C)OC1(CNc2nc3c(s2)CN(C(=O)c2cc4ccccc4[nH]2)CC3)CCC1` [Example 413, 5-(1H-indole-2-carbonyl)-N-{[1-(propan-2-yloxy)cyclobutyl]methyl}-4H,5H,6H,7H-[1,3]thiazolo[5,4-c]pyridin-2-amine] was tested, and the IC50 (HBV core protein) was < 5 µM and the EC50 (HBV) was < 1000 nM.
For `Cc1cccc2[nH]c(C(=O)N3CCc4nc(NCC5(O)CCC5)sc4C3)cc12` [Example 370, 1-({[5-(4-methyl-1H-indole-2-carbonyl)-4H,5H,6H,7H-[1,3]thiazolo[5,4-c]pyridin-2-yl]amino}methyl)cyclobutan-1-ol], the IC50 (HBV core protein) was < 5 µM and the EC50 (HBV) was < 1000 nM.
`Cc1cc(F)cc2[nH]c(C(=O)N3CCc4nc(NCC5(O)CCC5)sc4C3)cc12` [Example 312, 1-({[5-(6-fluoro-4-methyl-1H-indole-2-carbonyl)-4H,5H,6H,7H-[1,3]thiazolo[5,4-c]pyridin-2-yl]amino}methyl)cyclobutan-1-ol] was tested, and the IC50 (HBV core protein) was < 5 µM and the EC50 (HBV) was < 1000 nM.
In the case of `Nc1nc2c(s1)CN(C(=O)c1cc3c(F)ccc(F)c3[nH]1)CC2` [Example 170, 5-(4,7-difluoro-1H-indole-2-carbonyl)-4H,5H,6H,7H-[1,3]thiazolo[5,4-c]pyridin-2-amine], the IC50 (HBV core protein) is reported as < 5 µM and the EC50 (HBV) is reported as < 1000 nM.
`O=C(Nc1nc2c(s1)CN(C(=O)c1cc3ccccc3[nH]1)CC2)NS(=O)(=O)C1CC1` [Example 390, 3-(cyclopropanesulfonyl)-1-[5-(1H-indole-2-carbonyl)-4H,5H,6H,7H-[1,3]thiazolo[5,4-c]pyridin-2-yl]urea] was tested, and the IC50 (HBV core protein) was < 5 µM and the EC50 (HBV) was < 100000 nM.
